According to patent US20230192661A1, “1, 4, 5, 6-TETRAHYDROPYRIMIDINE-2-AMINE DERIVATIVE” (UBE Corporation, priority 2020, published 2023):

Molecular target: T1, αvβ6 (Homo sapiens, UniProt P06756+P18564)
T1 construct: endogenous in cells; host or cells: HT-29 cells
Assay: αvβ6 cell adhesion inhibition test (HT-29 cells on recombinant human LAP protein)
Type: cell-based
Conditions: recombinant human LAP coating, 200 μM MnCl2, 1 hour, read-out: IC50 (rate of inhibition of cell adhesion, αvβ6)
Description: Test Example 2 was performed by partially modifying the method of Henderson et al. (Nat Med., 19 (12), 1617-24, 2013). In Test Example 2, the same reagents as in Test Example 1 were used unless otherwise specified.
Recombinant human LAP protein (manufactured by R&D Systems, Inc., 246-LP-025) was prepared at […] with PBS, dispensed at 100 μL/well to a 96-well plate, and left standing overnight. The plate was washed with HBSS, then subjected to blocking treatment with DMEM containing 1% BSA, and used as a coated plate in the adhesion test.
HT-29 cells cultured in McCoy's 5A medium (manufactured by Thermo Fisher Scientific, Inc., 16600) containing 10% FBS and 1% penicillin/streptomycin/amphotericin B were recovered and suspended in DMEM containing 0.1% BSA and 200 μM MnCl2 to prepare a cell suspension. A test compound was added thereto.
The cell suspension of 5×10^5 cells/mL containing the test compound was added at 100 μL/well to the coated plate and left standing for 1 hour in a 5% CO2 incubator (37° C.). One hour later, the supernatant was removed, and the plate was washed with HBSS containing 200 μM MnCl2. The cells that adhered to each well in the plate were stained with crystal violet, and the cells were lysed, followed by absorbance measurement. Inhibition without substrate coating was defined as 100% inhibition, and inhibition when DMSO was added instead of the test compound was defined as 0% inhibition. The rate of inhibition of cell adhesion by the test compound was calculated according to the following expression.
Rate of inhibition of cell adhesion (%)=[1−{(Absorbance in the case of adding the test compound)−(Absorbance without substrate coating)}/{(Absorbance in the case of adding DMS)−(Absorbance without substrate coating)}]×100
An IC50 value was calculated from the rate of inhibition of cell adhesion by the test compound. A: IC50<3 nM, B: 3 nM≤IC50<10 nM, C: 10 nM≤IC50<30 nM, D: 30 nM≤IC50<100 nM, or E: IC50≥100 nM.

T1 sequence (P06756 31-889 limits assumed): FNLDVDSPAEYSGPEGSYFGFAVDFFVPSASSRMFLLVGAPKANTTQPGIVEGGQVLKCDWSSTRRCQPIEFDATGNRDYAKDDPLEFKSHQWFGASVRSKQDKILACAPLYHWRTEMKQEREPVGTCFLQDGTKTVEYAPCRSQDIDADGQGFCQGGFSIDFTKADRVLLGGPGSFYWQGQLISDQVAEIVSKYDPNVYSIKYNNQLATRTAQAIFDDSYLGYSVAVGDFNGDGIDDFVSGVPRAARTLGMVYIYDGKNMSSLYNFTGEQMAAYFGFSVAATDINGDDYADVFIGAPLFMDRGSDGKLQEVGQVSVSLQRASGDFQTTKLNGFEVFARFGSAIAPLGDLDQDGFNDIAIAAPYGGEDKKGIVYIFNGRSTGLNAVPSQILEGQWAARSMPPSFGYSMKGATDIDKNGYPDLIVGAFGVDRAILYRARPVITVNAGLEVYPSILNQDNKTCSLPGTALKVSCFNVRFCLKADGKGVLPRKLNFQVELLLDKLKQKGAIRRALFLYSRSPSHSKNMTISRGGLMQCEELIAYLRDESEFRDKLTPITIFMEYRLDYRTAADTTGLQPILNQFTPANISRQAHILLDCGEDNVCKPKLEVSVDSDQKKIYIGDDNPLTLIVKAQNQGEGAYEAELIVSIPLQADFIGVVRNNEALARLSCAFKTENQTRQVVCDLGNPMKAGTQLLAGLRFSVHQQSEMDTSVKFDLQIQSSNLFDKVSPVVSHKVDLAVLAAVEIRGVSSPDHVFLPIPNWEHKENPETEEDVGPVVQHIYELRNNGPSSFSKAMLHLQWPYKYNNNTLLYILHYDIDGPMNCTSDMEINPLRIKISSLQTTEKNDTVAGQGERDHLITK
T1 sequence (P06756 891-1048 limits assumed): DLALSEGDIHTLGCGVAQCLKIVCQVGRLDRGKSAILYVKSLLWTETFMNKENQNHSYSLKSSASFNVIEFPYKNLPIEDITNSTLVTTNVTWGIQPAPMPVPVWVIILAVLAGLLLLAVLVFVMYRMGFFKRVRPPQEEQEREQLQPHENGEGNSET
T1 sequence (P18564 22-788): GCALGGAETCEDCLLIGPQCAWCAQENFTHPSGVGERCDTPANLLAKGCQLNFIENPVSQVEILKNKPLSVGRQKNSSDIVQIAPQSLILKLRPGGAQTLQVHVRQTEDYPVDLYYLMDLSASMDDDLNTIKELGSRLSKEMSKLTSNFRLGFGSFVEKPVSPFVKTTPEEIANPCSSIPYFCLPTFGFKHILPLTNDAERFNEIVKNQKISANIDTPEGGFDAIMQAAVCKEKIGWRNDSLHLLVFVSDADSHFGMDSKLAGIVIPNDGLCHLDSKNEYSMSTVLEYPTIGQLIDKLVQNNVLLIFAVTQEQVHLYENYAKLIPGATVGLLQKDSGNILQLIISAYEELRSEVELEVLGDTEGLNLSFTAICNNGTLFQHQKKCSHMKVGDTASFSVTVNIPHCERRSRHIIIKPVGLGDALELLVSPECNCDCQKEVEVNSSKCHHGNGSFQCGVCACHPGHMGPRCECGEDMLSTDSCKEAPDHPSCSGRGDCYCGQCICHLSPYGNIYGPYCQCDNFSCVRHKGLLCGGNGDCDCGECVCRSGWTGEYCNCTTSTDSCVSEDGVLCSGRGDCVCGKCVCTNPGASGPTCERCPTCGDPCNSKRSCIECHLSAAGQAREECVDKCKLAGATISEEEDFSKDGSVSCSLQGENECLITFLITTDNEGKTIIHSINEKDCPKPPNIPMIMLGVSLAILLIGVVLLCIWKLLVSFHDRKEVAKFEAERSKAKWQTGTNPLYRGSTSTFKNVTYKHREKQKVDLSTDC

SMILES	IC50 [nM]
O=C(O)C[C@H](NC(=O)CNC(=O)c1cc(NC2=NCC(F)CN2)c2cn[nH]c2c1)c1cccc(N2CCOCC2)c1 (stereo partly drawn) [Example 45-(b), (3S)-3-(2-(4-((5-fluoro-1,4,5,6-tetrahydropyrimidin-2-yl)amino)-1H-indazole-6-carboxamido)acetamido)-3-(3-morpholinophenyl)propanoic acid]	3 to 10
O=C(O)C[C@H](NC(=O)CNC(=O)c1cc(NC2=NCC(F)CN2)c2cn[nH]c2c1)c1ccc(OC(F)F)cc1 (stereo partly drawn) [Example 46-(b), (3S)-3-(4-(difluoromethoxy)phenyl)-3-(2-(4-((5-fluoro-1,4,5,6-tetrahydropyrimidin-2-yl)amino)-1H-indazole-6-carboxamido)acetamido)propanoic acid]	3 to 10
O=C(O)C[C@H](NC(=O)CNC(=O)c1cc(NC2=NCC(F)CN2)c2cn[nH]c2c1)c1ccc(C(F)(F)F)cc1 (stereo partly drawn) [Example 47-(b), (3S)-3-(2-(4-((5-fluoro-1,4,5,6-tetrahydropyrimidin-2-yl)amino)-1H-indazole-6-carboxamido)acetamido)-3-(4-(trifluoromethyl)phenyl)propanoic acid]	3 to 10
O=C(O)C[C@H](NC(=O)CNC(=O)c1cc(NC2=NCC(F)CN2)c2c(F)n[nH]c2c1)c1cc(Cl)cc(C(F)(F)F)c1 (stereo partly drawn) [Example 48-(b), (3S)-3-(3-chloro-5-(trifluoromethyl)phenyl)-3-(2-(3-fluoro-4-((5-fluoro-1,4,5,6-tetrahydropyrimidin-2-yl)amino)-1H-indazole-6-carboxamido)acetamido) propanoic acid]	< 3
O=C(O)C[C@H](NC(=O)CNC(=O)c1cc(NC2=NCC(F)CN2)c2c(Cl)n[nH]c2c1)c1cc(Cl)cc(C(F)(F)F)c1 (stereo partly drawn) [Example 49-(b), (3S)-3-(2-(3-chloro-4-((5-fluoro-1,4,5,6-tetrahydropyrimidin-2-yl)amino)-1H-indazole-6-carboxamido)acetamido)-3-(3-chloro-5-(trifluoromethyl)phenyl)propanoic acid]	< 3
O=C(O)C[C@H](NC(=O)CNC(=O)c1cc(NC2=NCC(O)CN2)c2cn[nH]c2c1)c1cc(Cl)cc(C(F)(F)F)c1 (stereo partly drawn) [Example 50-(b), (3S)-3-(3-chloro-5-(trifluoromethyl)phenyl)-3-(2-(4-((5-hydroxy-1,4,5,6-tetrahydropyrimidin-2-yl)amino)-1H-indazole-6-carboxamido)acetamido)propanoic acid]	10 to 30
O=C(O)C[C@H](NC(=O)CNC(=O)c1cc(NC2=NCCCN2)c2cn[nH]c2c1)c1cc(Cl)cc(C(F)(F)F)c1 [Example 51-(b), (S)-3-(3-chloro-5-(trifluoromethyl)phenyl)-3-(2-(4-((1,4,5,6-tetrahydropyrimidin-2-yl)amino)-1H-indazole-6-carboxamido)acetamido)propanoic acid]	10 to 30
O=C(O)C[C@H](NC(=O)CNC(=O)c1cc(NC2=NCC(F)CN2)cc2[nH]ncc12)c1cc(Cl)cc(C(F)(F)F)c1 (stereo partly drawn) [Example 52-(b), (3S)-3-(3-chloro-5-(trifluoromethyl)phenyl)-3-(2-(6-((5-fluoro-1,4,5,6-tetrahydropyrimidin-2-yl)amino)-1H-indazole-4-carboxamido)acetamido)propanoic acid]	< 3
O=C(O)C[C@H](NC(=O)CNC(=O)c1cc(NC2=NCC(F)CN2)cc2[nH]ncc12)c1cc(Br)cc(C(F)(F)F)c1 (stereo partly drawn) [Example 53-(b), (3S)-3-(3-bromo-5-(trifluoromethyl)phenyl)-3-(2-(6-((5-fluoro-1,4,5,6-tetrahydropyrimidin-2-yl)amino)-1H-indazole-4-carboxamido)acetamido)propanoic acid]	< 3
O=C(O)C[C@H](NC(=O)CNC(=O)c1cc(NC2=NCC(F)CN2)cc2[nH]ncc12)c1cc(I)cc(C(F)(F)F)c1 (stereo partly drawn) [Example 54-(b), (3S)-3-(2-(6-((5-fluoro-1,4,5,6-tetrahydropyrimidin-2-yl)amino)-1H-indazole-4-carboxamido)acetamido)-3-(3-iodo-5-(trifluoromethyl)phenyl)propanoic acid]	< 3
O=C(O)C[C@H](NC(=O)CNC(=O)c1cc(NC2=NCC(F)CN2)cc2[nH]ncc12)c1ccc(F)c(C(F)(F)F)c1 (stereo partly drawn) [Example 55-(b), (3S)-3-(2-(6-((5-fluoro-1,4,5,6-tetrahydropyrimidin-2-yl)amino)-1H-indazole-4-carboxamido)acetamido)-3-(4-fluoro-3-(trifluoromethyl)phenyl)propanoic acid]	< 3
O=C(O)C[C@H](NC(=O)CNC(=O)c1cc(NC2=NCC(F)CN2)cc2[nH]ncc12)c1cccc(C(F)(F)F)c1 (stereo partly drawn) [Example 56-(b), (3S)-3-(2-(6-((5-fluoro-1,4,5,6-tetrahydropyrimidin-2-yl)amino)-1H-indazole-4-carboxamido)acetamido)-3-(3-(trifluoromethyl)phenyl)propanoic acid]	3 to 10
